Reference: patent US20100255020A1, “METHOD FOR INDUCING CYTOTOXIC T-CELLS, CYTOTOXIC T-CELL INDUCERS, AND PHARMACEUTICAL COMPOSITIONS AND VACCINES EMPLOYING THEM” (NEC CORPORATION, priority 2007, published 2010)
Where no end group is shown, it is not given here.

How the values were obtained:
[1] = molecular target: T1, HLA-A*0206 molecule (Homo sapiens, UniProt P04439, D140Y/D185E/D98H/E176V/E277Q/F33Y/G131W/G231S/I119V/I121R/I166T/I218V/L300P/L318F/N151K/N90K/P208A/P217A/Q86G/Q94H/R138H/R169H/T345S); assay: Peptide binding to HLA-A*0206 molecule on RA2.6 cells (flow cytometry, Kd); details: HLA-A*0206, RA2.6 cells; read-out: Binding assay data (−log Kd) (converted)
T1 construct: expressed in transfected cells; host or cells: RA2.6 (mouse TAP-deficient RMAS cells transfected with pMKITneo bearing HLA-A*0206 cDNA)
Experimental: The ability of a peptide to bind to an HLA-A*0206 molecule, which is a product of the HLA-A*0206 gene, was measured using RA2.6 cells (cell line newly generated in Kochi University), wherein cDNA of the HLA-A*0206 gene is introduced into RMAS, which is a mouse TAP (transporter associated with antigen processing)-deficient cell line.
RA2.6 cells were first cultured overnight at 26° C., during this incubation HLA-A*0206 molecules devoid of bound peptide accumulated. Serial dilutions of peptide were added to these cells and peptide binding was carried out at room temperature for 30 minutes.
Subsequently, culture was carried out at 37° C. for 3.5 hours, during this incubation empty HLA-A*0206 molecules to which no peptide was bound were denatured, and the tertiary structure was lost.
The cells were stained by adding thereto fluorescently-labeled monoclonal antibody BB7.2, which specifically recognizes the peptide-bound HLA-A*0206 molecule, and incubating on ice for 20 minutes.
Subsequently, the amount of fluorescence per cell was measured using a flow cytometer, and a dissociation constant Kd value was calculated by a method published in the literature (Udaka et al., Immunogenetics, 51, 816-828, 2000).

[2] = system: W10-specific CD8 positive T cells; assay: HLA-A24 tetramer flow cytometry of peptide-specific T cells; type: cell-based, human; details: patient KB07-006, PBMCs incubated with W10 peptide
Experimental: HLA-A24 tetramer was prepared by modifying a method by Altman et al. (Altman, J D, Moss, P A., Goulder, P J, Barouch, D H, McHeyzer-Williams, M G, Bell, J I, McMichael, A J, Davis, M M. Phenotypic analysis of antigen-specific T lymphocytes. Science […] 274, 94-96.)
HLA-A24 tetramer was prepared by expressing an HLA-A*2402 molecule in E. coli and W10 peptide was bound thereto. Furthermore, the C-terminus of the complex was modified by a site-specific biotinyltion. The product was then complexed with streptavidin (SA), giving rise to a molecular assembly consisting of 4 molecules of W10-bound HLA-A*2402 molecules and 1 SA.
Here in this assay, T cells specific for a HLA-A24-W10 complex was fluorescently labeled with […] (phycoerythrin) conjugated SA and antigen specific T cells were identified by flow cytometry.
cDNAs of HLA-A*2402, which is an H-chain constituting an HLA-A*2402 molecule, and human β2m 02-microglobulin) which is a light chain, were inserted into a pET-21d+vector (Novagen, Merck) under T7 promoter, respectively. The resultant vector was introdyced into E. coli BL21 (DE3) pLysS, and expression of the gene was induced using IPTG. […]
This HLA-A*2402-W10 monomer was associated with PE-labeled SA at a molecular ratio of 4:1, thus preparing HLA tetramer. […] T cells were incubated with HLA-A*2402-W10 or HLA-A*2402-HER2-63 on ice for 1 hour and then analyzed by flow cytometry.

ALLPAVPSL [W10]
Kd [1]: 0.0182 µM
W10-specific CD8 positive T cells (HLA-A24-W10 tetramer staining) [2]: increased
